Test results published in paper PMC10065791 (eLife, 2023).

Experiments:
[1] = biological target: T1, I50V/A71V mutant protease (Human immunodeficiency virus type 1 group M subtype B, UniProt P12497, A559V/I538V/Q495K); set-up: method as in Lockbaum et al. (ACS Infect Dis. 2019 Feb 8; 5 (2): 316–325); details: I50V/A71V drug-resistant protease variant; previously reported; ref Lockbaum et al. (ACS Infect Dis. 2019 Feb 8; 5 (2): 316–325); cited from earlier work
T1 construct: the gene encoding the desired HIV-1 protease was subcloned into the heat-inducible pXC35 expression vector; made in house

I84V mutant protease = biological target: T2, I84V mutant protease (Human immunodeficiency virus type 1 group M subtype B, UniProt P12497, I572V/Q495K); set-up: method as in Lockbaum et al. (ACS Infect Dis. 2019 Feb 8; 5 (2): 316–325); details: I84V drug-resistant protease variant; previously reported; ref Lockbaum et al. (ACS Infect Dis. 2019 Feb 8; 5 (2): 316–325); cited from earlier work
T2 construct: the gene encoding the desired HIV-1 protease was subcloned into the heat-inducible pXC35 expression vector; made in house

wild-type NL4-3 protease = biological target: T3, wild-type NL4-3 protease (Human immunodeficiency virus type 1 group M subtype B, UniProt P12497, Q495K); set-up: method as in Lockbaum et al. (ACS Infect Dis. 2019 Feb 8; 5 (2): 316–325); details: previously reported, ref Lockbaum et al. (ACS Infect Dis. 2019 Feb 8, 5 (2): 316–325), read-out: Ki WT; cited from earlier work
T3 construct: the gene encoding the desired HIV-1 protease was subcloned into the heat-inducible pXC35 expression vector; made in house

[2] = test system: mixture of 26 isogenic NL4-3 protease mutant viruses; test: Selection for resistance in CEMx174 culture with escalating inhibitor, start mixture of 26 isogenic single mutants, Primer ID deep sequencing; format: cell-based, HIV-1
Procedure: . The selection experiments were performed under two separate starting conditions: first when the starting virus was generated from the NL4-3 clone (this clone closely approximates the clade B consensus for the protease amino acid sequence and will be referred to as ‘wild type’), then again when the starting virus was a mixture of 26 isogenic viruses each with a single mutation associated with drug resistance in the NL4-3 background. […] The initial inhibitor concentration started at low nanomolar concentrations and increased by a factor of 1.5 with each subsequent viral passage (the inhibitor concentration was increased only after the virus spread efficiently through the culture). […] For technical reasons, only five of the selections starting with the mixture of mutants reached an inhibitor concentration as high as 400 nM and are reported here (Figure 2—figure supplement 3). […]
CEMx174 cells were maintained in RPMI 1640 medium with 10% fetal calf serum and penicillin-streptomycin. […] Cell phenotypes were monitored for their ability to generate virus after transfection (293Ts), support viral replication (CEMx174), or report viral infection (TZM-bl). […]

| SMILES | Ki [1] [pM] | Ki (I84V mutant protease) [pM] | Ki (wild-type NL4-3 protease) [pM] | Abundance of variant at the last time point ([2]; variant 13V/16E/32I/33F/45I/46I/54L/71V/76V/82F/84V, passage 53, [PI] 5000 nM) [%] | Abundance of variant at the last time point ([2]; variant 10F/46I/50V/63P/85V, passage 58, [PI] 400 nM) [%] |
| --- | --- | --- | --- | --- | --- |
| CCC(CC)CN(C[C@@H](O)[C@H](Cc1ccccc1)NC(=O)O[C@H]1CO[C@H]2OCC[C@H]21)S(=O)(=O)c1ccc(N)cc1 [UMASS-6] | 100 ± 9.9 | 12.8 ± 3.1 | < 5 | 62.8 | – |
| CCC(CC)CN(C[C@@H](O)[C@H](Cc1ccccc1)NC(=O)O[C@H]1CO[C@H]2OCC[C@H]21)S(=O)(=O)c1ccc(OC)cc1 [UMASS-7] | – | – | – | – | 21.0 |
